pEC50: −log10 of the molar value. Converted amounts (≈) assume the structure as drawn. Where two headings read alike, the source gives them in different places. Positions of bridges follow the written chain, without caps; N, C: chain ends. Non-standard residues stand in square brackets, D forms with d. Residues, ends and D or L forms follow the SMILES beside them. Trp(6-Cl) = N[C@@H](Cc1c[nH]c2cc(Cl)ccc12)C(=O)O; Lys(N3) = [N-]=[N+]=NCCCC[C@H](N)C(=O)O; 2Nal = N[C@@H](Cc1ccc2ccccc2c1)C(=O)O; Lys(Me2) = CN(C)CCCC[C@H](N)C(=O)O; R8 = C=CCCCCCC[C@@](C)(N)C(=O)O; Cba = N[C@@H](CC1CCC1)C(=O)O; S5 = C=CCCC[C@](C)(N)C(=O)O; Nle = CCCC[C@H](N)C(=O)O; Aib = CC(C)(N)C(=O)O; Ahx = NCCCCCC(=O)O; βAla = NCCC(=O)O; Sar = CNCC(=O)O
Tests used:
[1] = Lactate dehydrogenase (LDH) release assay; type: cell-based
Description: (§1) HCT116 cells were stably transfected with a p53 responsive β-lactamase reporter and expanded in McCoy’s 5 A Medium with 10% fetal bovine serum (FBS), Blasticidin, and Penicillin/Streptomycin and then transferred to 1.5 ml freezing vials and stored under liquid nitrogen in growth media containing 5% DMSO. […] The cells were then seeded into a 384-well plate at a density of 8000 cells per well. […] The final working concentration of DMSO was 0.5%. Lactate dehydrogenase release was detected using the CytoTox-ONE Homogenous Membrane Integrity Assay Kit (Promega), as per the manufacturer’s instructions. Measurements were carried out using the Tecan plate reader. […] Measurements were taken a minimum of three times (biological replicates) and values are reported as geometric means of the replicates.

HCT116 cells = assay: Lactate dehydrogenase (LDH) release assay; type: cell-based
Description: as §1

[2] = Solubility assay (kinetic solubility, PBS pH 7); type: physicochemical; conditions: pH 7, PBS; for solubility kinetic: pH 7, aqueous buffer, kinetic from dmso stock, read-out: Solubility
Description: The standard reference solutions were prepared by diluting the 10 mM stock in 10:80:10 solution of acetonitrile:methanol:DMSO to 100 µM.
The solubility value is calculated by the following equation:
Solubility [µM] = (Peak area of sample/ Peak area of standard) (Standard concentration)

[3] = Experimental LogD (partition coefficient)
[4] = 0% FBS 4Hr, read-out: LDH: Cytotoxicity assay EC50
[5] = 10% FBS 16Hr, read-out: LDH: Cytotoxicity assay EC50

CC(=O)N[C@@H](CCCCN=[N+]=[N-])C(=O)NCCC(=O)N[C@@H](CC(C)C)C(=O)N[C@H](C(=O)N[C@@H](Cc1ccccc1)C(=O)N[C@]1(C)CCCCCCC=CCCC[C@@](C)(C(=O)N[C@@H](C)C(=O)N(C)CC(=O)N(C)CC(=O)N(C)CC(=O)N(C)CC(=O)N(C)CC(N)=O)NC(=O)[C@H](CC2CCC2)NC(=O)[C@H](CCC(N)=O)NC(=O)[C@H](C)NC(=O)[C@H](Cc2c[nH]c3ccccc23)NC(=O)[C@H](Cc2ccc(O)cc2)NC(=O)[C@H](CCC(=O)O)NC1=O)[C@@H](C)O [MP-443] (Ac-[Lys(N3)][βAla]LTF[R8]EYWAQ[Cba][S5]A[Sar][Sar][Sar][Sar][Sar]-NH2; staple 6-13)
pEC50 [1, 4]: < 4.29 | pEC50 [1, 5]: < 4.29 | LDH: Cytotoxicity assay % Effect (HCT116 cells; 0% FBS 4Hr): 8.392% | LDH: Cytotoxicity assay % Effect (HCT116 cells; 10% FBS 16Hr): 2.311% | solubility kinetic [2]: 180 µM (≈ 390 µg/mL)

CC(=O)N[C@@H](CCCCN=[N+]=[N-])C(=O)N[C@H](C(=O)N[C@@H](Cc1ccccc1)C(=O)N[C@]1(C)CCCCC#CC#CCCC[C@@](C)(C(=O)N[C@@H](CCC(=O)O)C(=O)N[C@@H](C)C(=O)N[C@@H](Cc2ccccc2)C(=O)N[C@@H](C)C(=O)N[C@@H](C)C(=O)N[C@@H](Cc2ccccc2)C(N)=O)NC(=O)[C@H](CC2CCC2)NC(=O)[C@H](CCC(N)=O)NC(=O)[C@H](C)NC(=O)[C@H](Cc2c[nH]c3ccccc23)NC(=O)[C@H](Cc2ccc(O)cc2)NC(=O)[C@H](CCC(=O)O)NC1=O)[C@@H](C)O [MP-444, Ac-K(N3)-TF(X)EYWAQ(Cba)(X)EAFAAF-NH2]
pEC50 [1, 4]: < 4.29 | pEC50 [1, 5]: < 4.29 | LDH: Cytotoxicity assay % Effect (HCT116 cells; 0% FBS 4Hr): 17.89% | LDH: Cytotoxicity assay % Effect (HCT116 cells; 10% FBS 16Hr): 4.968% | solubility kinetic [2]: 167 µM (≈ 365 µg/mL)

CC(=O)N[C@@H](CCCCN=[N+]=[N-])C(=O)N[C@@H](CCCCN)C(=O)N[C@@H](CCCCN)C(=O)N[C@@H](CCCCN)C(=O)NCCCCCC(=O)N[C@H](C(=O)N[C@@H](CO)C(=O)N[C@@H](Cc1ccccc1)C(=O)N[C@]1(C)CCCCCCC=CCCC[C@@](C)(C(=O)N[C@@H](CCC(=O)O)C(=O)N[C@@H](CC(N)=O)C(=O)N[C@@H](Cc2ccccc2)C(N)=O)NC(=O)[C@H](CC(C)C)NC(=O)[C@H](CC(C)C)NC(=O)[C@H](C)NC(=O)[C@H](Cc2c[nH]c3ccccc23)NC(=O)[C@H](Cc2ccc(O)cc2)NC(=O)[C@H](CCC(=O)O)NC1=O)[C@@H](C)O [MP-085] (Ac-[Lys(N3)]KKK[Ahx]TSF[R8]EYWALL[S5]ENF-NH2; staple 9-16)
logD ([3]; not stated, Partition Coeff LogD): 2.39 | pEC50 ([1]; LDH: Cytotoxicity assay EC50): < 4.30 | solubility kinetic [2]: 2 µM (≈ 5.01 µg/mL)

CC(=O)N[C@@H](CC(C)C)C(=O)N[C@H](C(=O)N[C@@H](Cc1ccccc1)C(=O)N[C@]1(C)CCCCCCC=CCCC[C@@](C)(C(=O)N[C@@H](CO)C(=O)N[C@@H](C)C(=O)N[C@@H](C)C(N)=O)NC(=O)[C@H](CC2CCC2)NC(=O)[C@H](CCC(N)=O)NC(=O)[C@H](C)NC(=O)[C@H](Cc2c[nH]c3cc(Cl)ccc23)NC(=O)[C@H](Cc2ccc(O)cc2)NC(=O)[C@H](CCC(=O)O)NC1=O)[C@@H](C)O [MP-192]
Partition Coeff LogD [3]: Poorly Behaved | pEC50 ([1]; LDH: Cytotoxicity assay: EC50): 4.70 | Solubility [2]: Poorly Behaved

CCCC[C@H](NC(=O)[C@H](CC(C)C)NC(=O)[C@H](C)NC(=O)[C@H](Cc1c[nH]c2ccccc12)NC(=O)[C@H](Cc1ccc(O)cc1)NC(=O)[C@H](CCC(=O)O)NC(=O)C(C)(C)NC(=O)[C@H](Cc1ccccc1)NC(=O)[C@H](CO)NC(=O)[C@@H](NC(C)=O)[C@@H](C)O)C(=O)NC(C)(C)C(N)=O [MP-156]
pEC50 ([1]; LDH: Cytotoxicity assay EC50): < 4.30 | LDH: Cytotoxicity assay % Effect (HCT116 cells): -1.482%

CCCC[C@@H]1NC(=O)[C@H](CC(C)C)NC(=O)[C@H](C)NC(=O)[C@H](Cc2c[nH]c3ccccc23)NC(=O)[C@H](Cc2ccc(O)cc2)NC(=O)[C@H](CCC(=O)O)NC(=O)[C@](C)(NC(=O)[C@H](Cc2ccccc2)NC(=O)[C@H](CO)NC(=O)[C@@H](NC(C)=O)[C@@H](C)O)CCCCCCC=CCCC[C@@](C)(C(N)=O)NC1=O [MP-151]
pEC50 ([1]; LDH: Cytotoxicity assay EC50): < 4.30 | LDH: Cytotoxicity assay % Effect (HCT116 cells): 9.894%

CC(=O)N[C@H](C(=O)N[C@@H](CO)C(=O)N[C@@H](Cc1ccccc1)C(=O)N[C@]1(C)CCCCCCC=CCCC[C@@](C)(C(=O)N[C@@H](CCC(=O)O)C(N)=O)NC(=O)[C@H](CC2CCC2)NC(=O)[C@H](CC(C)C)NC(=O)[C@H](C)NC(=O)[C@H](Cc2c[nH]c3cc(Cl)ccc23)NC(=O)[C@H](Cc2ccc(O)cc2)NC(=O)[C@H](CCC(=O)O)NC1=O)[C@@H](C)O [MP-043] (Ac-TSF[R8]EY[Trp(6-Cl)]AL[Cba][S5]E-NH2; staple 4-11)
pEC50 ([1]; LDH: Cytotoxicity assay EC50): < 4.30 | LDH: Cytotoxicity assay % Effect (HCT116 cells): 3.493%

CC(=O)N[C@@H](CCCNC(=N)N)C(=O)NCCCCCC(=O)N[C@@H](CCCCN=[N+]=[N-])C(=O)N[C@@H](CC(C)C)C(=O)N[C@H](C(=O)N[C@@H](Cc1ccccc1)C(=O)N[C@]1(C)CCCCCCC=CCCC[C@@](C)(C(=O)N[C@@H](CO)C(=O)N[C@@H](C)C(=O)N[C@@H](C)C(N)=O)NC(=O)[C@H](CC2CCC2)NC(=O)[C@H](CCC(N)=O)NC(=O)[C@H](C)NC(=O)[C@H](Cc2c[nH]c3ccccc23)NC(=O)[C@H](Cc2ccc(O)cc2)NC(=O)[C@H](CCC(=O)O)NC1=O)[C@@H](C)O [MP-005]
pEC50 ([1]; LDH: Cytotoxicity assay: EC50): < 4.30 | LDH: Cytotoxicity assay: % Effect (HCT116 cells): 39.54%

CC(=O)N[C@H](C(=O)N[C@@H](CCCNC(N)=O)C(=O)N[C@H](C(=O)N[C@@H](CO)C(=O)N[C@@H](Cc1ccccc1)C(=O)N[C@]1(C)CCCCCCC=CCCC[C@@](C)(C(N)=O)NC(=O)[C@H](CC(C)C)NC(=O)[C@H](CC(C)C)NC(=O)[C@H](C)NC(=O)[C@H](Cc2c[nH]c3ccccc23)NC(=O)[C@H](Cc2ccc(O)cc2)NC(=O)[C@H](CCC(=O)O)NC1=O)[C@@H](C)O)C(C)C [MP-9667]
pEC50 ([1]; LDH: Cytotoxicity assay EC50): < 4.30 | LDH: Cytotoxicity assay % Effect (HCT116 cells): 5.511%

CC(=O)N[C@@H](CCCCN=[N+]=[N-])C(=O)NCCC(=O)N[C@@H](CC(C)C)C(=O)N[C@H](C(=O)N[C@@H](Cc1ccccc1)C(=O)N[C@]1(C)CCCCCCC=CCCC[C@@](C)(C(=O)N[C@@H](C)C(=O)NC(C)(C)C(=O)NC(C)(C)C(=O)NC(C)(C)C(=O)NC(C)(C)C(=O)NC(C)(C)C(N)=O)NC(=O)[C@H](CC2CCC2)NC(=O)[C@H](CCC(N)=O)NC(=O)[C@H](C)NC(=O)[C@H](Cc2c[nH]c3ccccc23)NC(=O)[C@H](Cc2ccc(O)cc2)NC(=O)[C@H](CCC(=O)O)NC1=O)[C@@H](C)O [MP-413] (Ac-[Lys(N3)][βAla]LTF[R8]EYWAQ[Cba][S5]A[Aib][Aib][Aib][Aib][Aib]-NH2; staple 6-13)
pEC50 [1, 4]: < 4.29 | pEC50 [1, 5]: < 4.29 | LDH: Cytotoxicity assay % Effect (HCT116 cells; 0% FBS 4Hr): 8.4% | LDH: Cytotoxicity assay % Effect (HCT116 cells; 10% FBS 16Hr): 10.36%

CCCC[C@@H]1NC(=O)[C@H](CC(C)C)NC(=O)[C@H](C)NC(=O)[C@H](Cc2c[nH]c3ccccc23)NC(=O)[C@H](Cc2ccc(O)cc2)NC(=O)[C@H](CCC(=O)O)NC(=O)[C@](C)(NC(=O)[C@H](Cc2ccc3ccccc3c2)NC(=O)[C@H](CO)NC(=O)[C@@H](NC(C)=O)[C@@H](C)O)CCCCCCC=CCCC[C@@](C)(C(N)=O)NC1=O [MP-147] (Ac-TS[2Nal][R8]EYWAL[Nle][S5]-NH2; staple 4-11)
pEC50 ([1]; LDH: Cytotoxicity assay EC50): < 4.30 | LDH: Cytotoxicity assay % Effect (HCT116 cells): 20.59%

CC(=O)N[C@@H](CCCCN(C)C)C(=O)N[C@@H](CCCCN(C)C)C(=O)NCCCCCC(=O)N[C@H](C(=O)N[C@@H](CO)C(=O)N[C@@H](Cc1ccccc1)C(=O)N[C@]1(C)CCCCCCC=CCCC[C@@](C)(C(=O)N[C@@H](CCC(=O)O)C(=O)N[C@@H](CC(N)=O)C(=O)N[C@@H](Cc2ccccc2)C(N)=O)NC(=O)[C@H](CC(C)C)NC(=O)[C@H](CC(C)C)NC(=O)[C@H](C)NC(=O)[C@H](Cc2c[nH]c3ccccc23)NC(=O)[C@H](Cc2ccc(O)cc2)NC(=O)[C@H](CCC(=O)O)NC1=O)[C@@H](C)O [MP-2042] (Ac-[Lys(Me2)][Lys(Me2)][Ahx]TSF[R8]EYWALL[S5]ENF-NH2; staple 7-14)
pEC50 ([1]; LDH: Cytotoxicity assay EC50): < 4.30 | LDH: Cytotoxicity assay % Effect (HCT116 cells): 5.569%

CC(=O)N[C@@H](CCCCN)C(=O)N[C@@H](CCCCN)C(=O)N[C@H](C(=O)N[C@@H](CO)C(=O)N[C@@H](Cc1ccccc1)C(=O)N[C@]1(C)CCCCCCC=CCCC[C@@](C)(C(=O)N[C@@H](CCC(=O)O)C(N)=O)NC(=O)[C@H](CC2CCC2)NC(=O)[C@H](CC(C)C)NC(=O)[C@H](C)NC(=O)[C@H](Cc2c[nH]c3ccccc23)NC(=O)[C@H](Cc2ccc(O)cc2)NC(=O)[C@H](CCC(=O)O)NC1=O)[C@@H](C)O [MP-157] (Ac-KKTSF[R8]EYWAL[Cba][S5]E-NH2; staple 6-13)
pEC50 ([1]; LDH: Cytotoxicity assay EC50): < 4.30 | LDH: Cytotoxicity assay % Effect (HCT116 cells): 5.957%

CC(=O)N[C@@H](CCCCN=[N+]=[N-])C(=O)NCCC(=O)N[C@@H](CC(C)C)C(=O)N[C@H](C(=O)N[C@@H](Cc1ccccc1)C(=O)N[C@]1(C)CCCCCCC=CCCC[C@@](C)(C(=O)N[C@@H](CO)C(=O)N[C@@H](C)C(=O)N[C@@H](C)C(N)=O)NC(=O)[C@H](CC2CCC2)NC(=O)[C@H](CCC(N)=O)N(C)C(=O)[C@H](C)NC(=O)[C@H](Cc2c[nH]c3ccccc23)NC(=O)[C@H](Cc2ccc(O)cc2)NC(=O)[C@H](CCC(=O)O)NC1=O)[C@@H](C)O [MP-499]
pEC50 ([1]; LDH: Cytotoxicity assay: EC50): < 4.30 | LDH: Cytotoxicity assay: % Effect (HCT116 cells): 13.75%

Reference: publication PMC10786919, “Design-rules for stapled peptides with in vivo activity and their application to Mdm2/X antagonists” (Nature Communications, 2024)
